Assays:
[1] = biological target: T1, Broad substrate specificity ATP-binding cassette transporter ABCG2 (Homo sapiens, UniProt Q9UNQ0); test: TP_TRANSPORTER: stimulation of ATPase activity (0.1~1 u M) in BCRP-expressing Sf9 cells; assay type: functional, cell membranes, Membrane
T1 sequence (Q9UNQ0 whole entry): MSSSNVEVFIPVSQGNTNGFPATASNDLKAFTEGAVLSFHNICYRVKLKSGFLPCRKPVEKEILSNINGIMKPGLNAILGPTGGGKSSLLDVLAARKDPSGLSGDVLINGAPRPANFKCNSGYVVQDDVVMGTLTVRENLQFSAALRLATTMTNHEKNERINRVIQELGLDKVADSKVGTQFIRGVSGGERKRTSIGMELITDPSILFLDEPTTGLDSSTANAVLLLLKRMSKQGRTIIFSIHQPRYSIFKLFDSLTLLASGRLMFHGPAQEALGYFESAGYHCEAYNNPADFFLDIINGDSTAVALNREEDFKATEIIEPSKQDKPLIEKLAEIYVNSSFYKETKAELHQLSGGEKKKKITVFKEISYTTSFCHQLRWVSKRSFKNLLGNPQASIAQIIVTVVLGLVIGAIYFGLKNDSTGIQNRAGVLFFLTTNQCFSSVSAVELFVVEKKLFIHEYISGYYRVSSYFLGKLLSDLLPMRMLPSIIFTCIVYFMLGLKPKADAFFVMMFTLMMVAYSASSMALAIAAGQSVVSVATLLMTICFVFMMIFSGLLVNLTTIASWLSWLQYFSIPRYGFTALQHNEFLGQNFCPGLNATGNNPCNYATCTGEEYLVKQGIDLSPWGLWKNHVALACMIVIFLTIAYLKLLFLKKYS

[2] = biological target: T1, Broad substrate specificity ATP-binding cassette transporter ABCG2; test: TP_TRANSPORTER: efflux of Hoechst33342 in BCRP-expressing Sf9 cells; assay type: functional

Activity [1] | IC50 [2] | Compound
inhibitor [] | 200 nM | CC#CC(=O)Nc1ccc2ncnc(Nc3cccc(Br)c3)c2c1
inhibitor [] | – | COc1cc2ncnc(Nc3ccc(F)c(Cl)c3)c2cc1OCCCN1CCOCC1 [GEFITINIB]

— ChEMBL document CHEMBL2074416, “High-affinity interaction of tyrosine kinase inhibitors with the ABCG2 multidrug transporter” (Mol Pharmacol, 2004)
